Measured values published in patent publication US7521239B2, “Photochemical internalization for virus-mediated molecule delivery into the cyosol” (priority 2000, dated 2009).

Experiments:
[1] = tested on: HCT 116 adenocarcinoma cells; assay: MTT cell survival after PCI-induced transduction with AdV-TK and ganciclovir; format: cell-based, human
Procedure: HCT 116 adenocarcinoma cells were infected with an adenovirus gene therapy vector encoding the HSV-tk gene (AdV-TK) and subjected to PCI-treatment. Conditions for infection were as described under “Experimental protocols” (MOI=5). 2 days after infection, different concentrations of ganciclovir (GCV) was added, and the cells were incubated further for 3 days before analysis of cell survival by the MTT method. This method is based on reduction of a water-soluble tetrazolium salt (MTT) to a purple, insoluble formazan product by mitochondrial dehydrogenases present in living, metabolically active cells. One ml medium containing […] is added to the cells, followed by 4 h incubation (37° C., 5% v/v CO2). The resulting formazan crystals are dissolved by adding 200 μl isopropanol (Sigma, Mo., USA) per well. The solution is transferred to a 96 wells plate which is read by a Multiskan EX microplate reader (Labsystems, Finland) with a 570 nm bandpass filter.

[2] = tested on: human WiDr adenocarcinoma cells; assay: X-gal staining of photochemically transduced WiDr cells; format: cell-based; details: AlPcS2a and light, no adenovirus
Procedure: 50 000 cells per well were seeded in 6-well plates (Costar,) and incubated overnight at 37° C. 1 ml medium containing […] AlPcS2a (Phorphyrin Products, Logan, Utah) was added, the cells were incubated for 18 h at 37° C., washed three times with medium and incubated for another 3 h at 37° C. The medium was removed and 200 μl of AdHCMV-lacZ was added. After incubation for 30 min at 37° C., 2 ml medium was added and the cells were incubated for 30 min before exposure to red light (Phillips TL 20 W/09, filtered through a Cinemoid 35 filter, with a light intensity reaching the cells of 13.5 W/m2). Before analysis of β-galactosidase activity the cells were incubated at 37° C. for two days.
For X-gal (5-bromo-4 chloro 3 indolyl-β-D-galactopyranoside) staining the medium was discarded, 1 ml of fixative solution (0,05% glutaraldehyde in PBS) was added and the cells were incubated at room temperature for 15 min. The fixative solution was discarded and the cells were washed three times in PBS at room temperature (second rinse was for 10 min, first and third rinses were performed quickly). 1 ml X-gal solution (5 mM K3Fe(CN)6, 5 mM K4Fe(CN)6, 1 mM MgCl2, 1 mg/ml X-gal) was added and the cells were incubated for 4 h to overnight at 37° C. and observed by microscopy (100× magnification) using an Axiovert S100 microscope (Zeiss) with an MC100 Spot camera (Zeiss).

HCT 116 cells = assay: Flow cytometry of β-galactosidase transduction in HCT 116 cells (AlPcS2a, red light); format: cell-based, human
Procedure: (§1) HCT 116 and WiDr human colon carcinoma cells were obtained from American Type Culture Collection (ATCC nos. CCL-247 and CCL-218, respectively). Cells were cultured in RPMI 1640 medium containing 10% fetal calf serum, 100 U/ml penicillin, […] and 2 mM glutamine (all Gibco BRL, Paisley, UK) at 37° C. in 5% CO2 atmosphere.
(§2) The recombinant adenovirus AdHCMV-lacZ encoding the E. coli lacZ gene controlled by the human cytomegalovirus promoter was obtained by homologous recombination using the pJM17 system in 293 cells (Addison et al., 1997, J. Gen. Virol. 78: 1653-61). Recombinant vectors were plaque purified, grown to high titer in 293 cells and purified by CsCl banding (Hitt et al., 1995, Methods Mol. Genet. 7:13-30). The virus-solution was diluted in PBS containing 0.68 mM CaCl2 and 0.5 mM MgCl2 to the MOIs employed in the different experiments. […]
(§3) The cells were trypsinised, centrifuged, resuspended in 25 ml medium and incubated for 5 min at 37° C. […] The samples were kept on ice for 30-60 min, filtered through a […] mesh nylon filter and analyzed in a FACS-Calibur flow cytometer (Becton Dickinson). […] Fluorescein-fluorescence was measured through a 510-530 nm filter after excitation with an argon laser (15 mW, 488 nm). […] The data were analyzed with the CELLQuest Software (Becton Dickinson).

WiDr cells = assay: Flow cytometry of β-galactosidase transduction in WiDr cells (AlPcS2a, red light); format: cell-based, human; details: photochemical treatment alone (Ad−, S+)
Procedure: as §1, §2, §3

Compound	GCV-mediated cell killing (cell survival, MTT) ([1]; control: photosensitizer + GCV, no AdV-TK)	β-galactosidase expressing cells (X-gal staining, microscopy) [2]	percentage of β-galactosidase positive cells (HCT 116 cells; Ad−, S+, 8 min light) [%]	mean fluorescence in non-infected cells (HCT 116 cells; photochemical treatment (AlPcS2a + light), no adenovirus) [RFU]	change in percentage of positive cells (WiDr cells)	GCV-mediated cell killing (cell survival, MTT) ([1]; control: only photosensitizer treatment)
Nc1nc(O)c2ncn(COC(CO)CO)c2n1 [GCV, ganciclovir]	no such effect					
aluminum phthalocyanine with 2 sulfonate groups on adjacent rings [AlPcS2a]		No positive cells	0.4	12	did not significantly change	no such effect
